From paper PMC8448819, “The Arabidopsis MIK2 receptor elicits immunity by sensing a conserved signature from phytocytokines and microbes” (Nature Communications, 2021)
“And” between values parts separate entries of the source, which are not always exact repeats. Equal values may be shown once. “Also recorded” adds a separate entry of the source. Read-outs that look alike come from different tables or passages of the source.

Columns and labels:
mik2 mutant seedlings = assay: ROS assay (luminol), mik2 mutants; type: in vivo, Arabidopsis thaliana; details: mik2 mutants, 100 nM SCOOPs or 1 µM FocSCOOPL
Procedure: (§1) ROS burst was determined by a luminol-based assay. […] Then, ddH2O was replaced by 200 µL of reaction solution containing 50 µM of luminol, and 10 µg/mL of horseradish peroxidase (Sigma-Aldrich) supplemented with or without 100 nM or 1 μM peptide. Luminescence was measured immediately after adding the solution with a luminometer (Glomax 20/20n, Promega) with a one-second interval for 15 min. The total values of ROS production were indicated as means of the relative light units (RLUs).

[1] = system: bak1-4 and bak1-5/serk4 mutant seedlings; assay: ROS assay (luminol), coreceptor mutants; type: in vivo, Arabidopsis thaliana
Procedure: as §1

[2] = system: bik1/pbl1 mutant seedlings; assay: ROS assay (luminol), bik1/pbl1; type: in vivo, Arabidopsis thaliana; details: bik1/pbl1, 100 nM SCOOP12 or 1 µM FocSCOOPL
Procedure: as §1

rbohD mutant seedlings = assay: ROS assay (luminol), rbohD; type: in vivo, Arabidopsis thaliana
Procedure: as §1

p35S::Aequorin seedlings = type: in vivo, Arabidopsis thaliana
[3] = system: MPK3, MPK4 and MPK6 phosphorylation, mik2-1 seedlings; assay: MAPK assay (α-pERK1/2 immunoblot), mik2-1; type: in vivo, Arabidopsis thaliana; parameters: dose or concentration left out as unconfirmed; details: mik2-1, α-pERK1/2 immunoblot
MIK2-BAK1 association = assay: Co-immunoprecipitation MIK2-BAK1; type: cell-based, Arabidopsis thaliana; details: protoplasts, MIK2-HA and BAK1-FLAG, 15 min, co-IP
Procedure: For co-IP assays in protoplasts, protoplasts were co-transfected with pHBT-35S::MIK2-HA and pHBT-35S::BAK1-FALG or pHBT-35S::SERK4-FLAG at 50 μg DNA for 500 μL protoplasts at the density of 2 × 10^5/mL for each sample and were incubated for 12 h. After treatment with 1 µM SCOOP peptides for 15 min, samples were collected by centrifugation at 200 × g for 2 min and lysed in 300 μL IP buffer (20 mM Tris-HCl, pH 7.5, 100 mM NaCl, 1 mM EDTA, 2 mM DTT, 10% [v/v] Glycerol, 0.5% [v/v] Triton X-100 and protease inhibitor cocktail from Sigma) by vortexing. After centrifugation at 10,000 × g for 10 min at 4 °C, 30 μL of supernatant was collected for input controls. The remaining supernatant was pre-incubated with protein-G-agarose beads at 4 °C for 1 h with gentle shaking at […] on a rocker. IP was carried out with α-FLAG agarose for 3 h at 4 °C. Beads were collected by 500 × g centrifugation for 2 min and washed three times with washing buffer (20 mM Tris-HCl, pH 7.5, 100 mM NaCl, 1 mM EDTA, 0.1% [v/v] Triton X-100) and once with 50 mM Tris-HCl, pH 7.5. Immunoprecipitated proteins and input proteins were analyzed by immunoblotting with α-HA (1:3000; Roche, Cat # 12013819001) or α-FLAG antibodies (1:3000; Sigma-Aldrich, Cat # A8592).
For co-IP assays in transgenic seedlings, leaves of 4-week-old pMIK2::MIK2-GFP transgenic plants were hand-inoculated with 1 μM SCOOP10^B or SCOOP12 and were treated for 30 min, followed by total protein isolation with extraction buffer (50 mM Tris-HCl, pH 7.5, 150 mM NaCl, 1% [v/v] NP-40 and 1:200 protease inhibitor cocktail from Sigma). Co-IP was carried out the same as for co-IP with protoplasts except that GFP-Trap agarose beads (Chromotek) were used instead. Immunoprecipitated proteins and input proteins were analyzed by immunoblotting with α-GFP (1:3500; Roche, Cat # 11814460001) or α-BAK1 antibodies (1:2000)[64].

[4] = system: Arabidopsis WT (Col-0) seedlings; type: in vivo, Arabidopsis thaliana
MIK2^ECD [5] = target: T1, MIK2^ECD (Arabidopsis thaliana, UniProt Q8VZG8); assay: Isothermal titration calorimetry (ITC); type: binding; details: 25 °C, pH 7.0; 600 μM peptide into 30 μM MIK2^ECD
T1 construct: MIK2^ECD (residues 1–707) and BAK1^ECD (residues 1–220) were amplified by PCR from Col-0 cDNA; 6xHIS (C); made in house; host or cells: High Five insect cells (Bac-to-Bac baculovirus system)

MIK2^ECD [6] = target: T1, MIK2^ECD; assay: Surface plasmon resonance (SPR); type: binding; details: CM5 chip with immobilized MIK2^ECD
MIK2^ECD-BAK1^ECD = assay: Gel filtration of MIK2^ECD and BAK1^ECD; type: biochemical, Arabidopsis thaliana; details: 0.1 mg peptide, 10 mM Bis-Tris pH 6.0, 100 mM NaCl, on ice 1 h
Procedure: The ECD domains of MIK2 (MIK2^ECD) and BAK1 (BAK1^ECD) fused with a 6 × HIS tag at the C-terminus were expressed using the Bac-to-Bac baculovirus expression system (Invitrogen) in High Five cells at 22 °C[25]. One liter of cells (1.8 × 10^6 cells per mL cultured in the medium from Expression Systems) was infected with 20 mL baculovirus and the media were harvested after 48 h of infection. The secreted MIK2^ECD-6 × HIS and BAK1^ECD-6 × HIS proteins were purified using Ni-NTA (Novagen) and size-exclusion chromatography (Hiload 200, GE Healthcare) in buffer containing 10 mM Bis-Tris pH 6.0 and 100 mM NaCl.
The purified MIK2^ECD proteins (0.5 mg for each) and BAK1^ECD proteins (0.2 mg for each) were incubated together with SCOOP12 or SCOOP12^SS/AA (0.1 mg for each) in a buffer containing 10 mM Bis-Tris, pH 6.0, 100 mM NaCl on ice for 1 h. Then, each of the mixtures was separated by gel filtration (Hiload 200, GE Healthcare) with a flow rate of 0.8 mL/min and an injection volume of […] at 4 °C, and the peak fractions were separated on SDS-PAGE followed by Coomassie blue (CBB) staining.

[7] = system: mik2-1 and mik2-2 mutant seedlings; type: in vivo, Arabidopsis thaliana; details: individual values, one per line
[8] = system: Arabidopsis WT seedling roots; assay: Microscopy of root browning and root meristems, WT; type: in vivo, Arabidopsis thaliana
Arabidopsis WT seedlings = assay: ROS assay (luminol), WT seedlings; type: in vivo, Arabidopsis thaliana; details: WT seedlings
Procedure: as §1

[9] = system: MPK3, MPK4 and MPK6 phosphorylation, WT seedlings; assay: MAPK assay (α-pERK1/2 immunoblot), WT; type: in vivo, Arabidopsis thaliana
Procedure: (§2) Ten-day-old seedlings grown vertically on ½MS plates were transferred to ddH2O overnight for recovery. Then, ddH2O was replaced by 100 nM peptides for the indicated time.

[10] = system: MPK3, MPK4 and MPK6 phosphorylation, bak1-4 and bak1-5/serk4 seedlings; assay: MAPK assay (α-pERK1/2 immunoblot), coreceptor mutants; type: in vivo, Arabidopsis thaliana
Procedure: as §2

[11] = system: MYB51 promoter, pMYB51::GUS seedling roots; assay: Histochemical GUS staining, pMYB51::GUS; type: in vivo, Arabidopsis thaliana; details: pMYB51::GUS seedlings, 1 µM, 3 h
Description: Stained samples were fixed with a 3:1 ethanol:acetic acid solution overnight and cleared by lactic acid and photographed with the Olympus SZX10 stereoscopic microscope equipped with DP27 camera.

[12] = system: WRKY30, WRKY33 and CYP81F2 expression, WT seedlings; assay: RT-qPCR of defense genes, WT; type: in vivo, Arabidopsis thaliana
[13] = system: WRKY30, WRKY33 and CYP81F2 expression, mik2 seedlings; assay: RT-qPCR of defense genes, mik2 mutants; type: in vivo, Arabidopsis thaliana
[14] = system: WT roots and leaf protoplasts; assay: TAMRA-SCOOP12 binding and competition in vivo, WT (confocal); parameters: species or system Arabidopsis thaliana; details: 100 nM TAMRA-SCOOP12, 5 min
[15] = system: mik2-1 roots and leaf protoplasts; assay: TAMRA-SCOOP12 binding in vivo, mik2-1 (confocal); parameters: species or system Arabidopsis thaliana; details: mik2-1, 100 nM TAMRA-SCOOP12, 5 min

T1 sequence (Q8VZG8 44-707): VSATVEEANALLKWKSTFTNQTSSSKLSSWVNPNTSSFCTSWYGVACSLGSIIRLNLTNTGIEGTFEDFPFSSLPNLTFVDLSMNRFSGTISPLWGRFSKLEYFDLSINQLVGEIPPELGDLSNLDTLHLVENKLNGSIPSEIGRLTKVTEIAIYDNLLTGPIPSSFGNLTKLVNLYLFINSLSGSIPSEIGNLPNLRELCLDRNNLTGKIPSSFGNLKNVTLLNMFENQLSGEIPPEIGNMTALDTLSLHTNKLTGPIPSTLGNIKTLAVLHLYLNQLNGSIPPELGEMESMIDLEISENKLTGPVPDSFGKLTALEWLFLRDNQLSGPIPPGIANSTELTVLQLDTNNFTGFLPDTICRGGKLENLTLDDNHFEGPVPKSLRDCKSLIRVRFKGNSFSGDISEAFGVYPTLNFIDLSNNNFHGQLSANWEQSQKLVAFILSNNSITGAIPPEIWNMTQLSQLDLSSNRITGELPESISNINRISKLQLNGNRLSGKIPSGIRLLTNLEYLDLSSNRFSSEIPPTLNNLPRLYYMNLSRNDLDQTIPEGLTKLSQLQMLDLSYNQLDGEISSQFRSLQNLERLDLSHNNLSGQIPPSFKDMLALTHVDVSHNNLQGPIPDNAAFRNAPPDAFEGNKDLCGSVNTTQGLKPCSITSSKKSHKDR

“MAQSWLKEESSSSHSERAGGR [FocSCOOPL, SCOOPL peptide from F. oxysporum f. sp. conglutinans strain Fo5176]” was tested, and the “ROS production in mik2” value (mik2 mutant seedlings) was “blocked in mik2”, the “ROS production in bak1-4” value ([1]; bak1-4, 100 nM SCOOP12) was “blocked in mik2 (h), and in bak1-4” and the “ROS production in bak1-5/serk4” value ([1]; bak1-5/serk4, 100 nM SCOOP12 or 1 µM FocSCOOPL) was “compromised in the bak1-5/serk4”. For the same substance, the “ROS production in bik1/pbl1” value [2] was “compromised in the bak1-5/serk4, bik1/pbl1, and rbohD mutants”, the “ROS production in rbohD” value (rbohD mutant seedlings) was “compromised in the bak1-5/serk4, bik1/pbl1, and rbohD mutants” and the “concentration inducing cytosolic Ca^2+ increase” value (p35S::Aequorin seedlings; in vivo) was 100 nM. The “cytosolic Ca^2+ increase” value (p35S::Aequorin seedlings; in vivo) was “triggers the cytosolic Ca^2+ increase”, the “MAPK activation in mik2” value [3] was “blocked in mik2-1” and the “MIK2-BAK1 association in protoplasts” value (MIK2-BAK1 association) was “induces MIK2-BAK1 association”.
In the case of “MGSGASGPVRSAQASQAGGR [SCOOP12SS/AA, Alanine substitutions on two conserved serine residues in the SxS motif of SCOOP12]”, the “root growth inhibition of SCOOP12^SS/AA” value ([4]; Supplementary Fig. 5d, e) is reported as “abolished its activities to inhibit root growth through MIK2”, the “binding to MIK2^ECD, ITC” value (MIK2^ECD [5]) is reported as “No binding was detected” and the “binding to MIK2^ECD, SPR” value (MIK2^ECD [6]) is reported as “nearly no binding”. For the same substance, the “MIK2^ECD-BAK1^ECD dimerization” value (MIK2^ECD-BAK1^ECD) was “unable to induce the dimerization between MIK2^ECD and BAK1^ECD”.
With “RPPTAPIYLPPSKSRKGKGP [SCOOP13, synthesized SCOOP peptide corresponding to the SxS motif]” the “root growth inhibition” value ([4]; in vivo) was “inhibited root growth to various degrees, with SCOOP10^B and 13 being the most active; also recorded: potent in inhibiting root growth”, the “Root length (Fig. 3e)” value ([7]; mik2-1) was 22.796 and 23.072 and 22.084 and 23.813 and 22.472 and 23.316 and 25.007 and 26.178 and 24.196 and 22.194 and the “Root length (Fig. 3e)” value ([7]; mik2-2) was 23.916 and 28.782 and 22.331 and 28.855 and 26.162 and 23.502 and 23.674 and 22.828 and 26.36 and 25.263 and 22.35. For the same substance, the “root browning” value ([8]; WT seedlings, prolonged treatment) was “led to brown roots”, the “root meristem distortion” value ([8]; WT, 5-day-old seedlings, 1 µM, 48 h, PI staining) was “distorted root meristems” and the “ROS production, total luminescence (Fig. 2h)” value (shortened to “ROS production … (Fig. 2h)”) (Arabidopsis WT seedlings; repeat 1) was 1290342. The “ROS production … (Fig. 2h)” value (Arabidopsis WT seedlings; repeat 2) was 1525381, the “ROS production … (Fig. 2h)” value (Arabidopsis WT seedlings; repeat 3) was 622461 and the “ROS production, SCOOP13 and 14 relative to other SCOOPs, and Ca^2+ bursts” value (p35S::Aequorin seedlings; Ca^2+ and ROS bursts, 100 nM) was “relatively weak activities for Ca^2+ and ROS bursts”. For the same substance, the “MAPK activation in shoots and roots” value ([9]; Supplementary Fig. 3i) was “triggered the MAPK activation in both shoots and roots”, the “MAPK activation in bak1-4” value ([10]; bak1-4) was “reduced in bak1-4” and the “MAPK activation in bak1-5/serk4” value ([10]; bak1-5/serk4) was “substantially blocked in bak1-5/serk4”. For the same substance, the “MYB51 promoter activity in roots” value [11] was “induced the promoter activities of MYB51”, the “WRKY30, WRKY33 and CYP81F2 expression” value ([12]; 1 µM, 1 h, RT-qPCR) was “upregulation” and the “CYP81F2 expression (Fig. 3i)” value ([12]; repeat 1) was 41.34. The “CYP81F2 expression (Fig. 3i)” value ([12]; repeat 2) was 47.71, the “CYP81F2 expression (Fig. 3i)” value ([12]; repeat 3) was 93.81 and the “CYP81F2 expression (Fig. 3i)” value ([12]; repeat 4) was 121.82. The “CYP81F2 expression (Fig. 3i)” value ([13]; mik2-1, repeat 1) was 0.33, the “CYP81F2 expression (Fig. 3i)” value ([13]; mik2-1, repeat 2) was 0.51 and the “CYP81F2 expression (Fig. 3i)” value ([13]; mik2-1, repeat 3) was 2.20. The “CYP81F2 expression (Fig. 3i)” value ([13]; mik2-1, repeat 4) was 5.48, the “CYP81F2 expression (Fig. 3i)” value ([13]; mik2-2, repeat 1) was 3.17 and the “CYP81F2 expression (Fig. 3i)” value ([13]; mik2-2, repeat 2) was 4.70. The “CYP81F2 expression (Fig. 3i)” value ([13]; mik2-2, repeat 3) was 4.82, the “CYP81F2 expression (Fig. 3i)” value ([13]; mik2-2, repeat 4) was 7.05 and the “WRKY30, WRKY33 and CYP81F2 expression” value ([13]; mik2 mutants, 1 µM, 1 h, RT-qPCR) was “abolished in mik2 mutants”.
For “TAMRA-MGSGASGPVRSSQSSQAGGR [TAMRA-SCOOP12, red fluorescent tetramethylrhodamine (TAMRA)-labeled SCOOP12 peptides at its N-terminus]”, the “bioactivity of labelled peptide: root growth inhibition vs SCOOP12” value ([4]; Supplementary Fig. 5a, b, MIK2-dependent) was “slightly lesser extent than SCOOP12”, the “MAPK activation by labelled peptide vs SCOOP12” value ([9]; Supplementary Fig. 5c, MIK2-dependent) was “slightly lesser extent than SCOOP12” and the “red fluorescent labelling of root tips and leaf protoplasts” value [14] was “Red fluorescent signals were detected”. The “red fluorescent labelling of root tips and leaf protoplasts” value [15] was “not in mik2-1”.
